Reference: the NIST ThermoML archive (doi:10.1016/j.jct.2012.06.031)
± gives the expanded uncertainty stated by the source.

Assays:
[1] = refractive index (Na D-line) (dimensionless); xn = mol fraction of the nth substance listed; conditions: 101 kPa, Liquid, Standard Abbe refractometry
[2] = xn = mol fraction of the nth substance listed; conditions: 101 kPa, Liquid; for viscosity: Concentric cylinders viscometry; for mass density: Vibrating tube method
[3] = refractive index (Na D-line) (dimensionless); conditions: 101.33 kPa, Liquid, Standard Abbe refractometry
[4] = 101 kPa, Liquid; for viscosity: Concentric cylinders viscometry; for mass density: Vibrating tube method

CCCO [propan-1-ol] + c1ccncc1
x2 = 0
Conditions | mass density, [2] [kg/m3] | refractive index, [1] | viscosity, [2] [mPa·s]
288.15 K | 807.947 ± 0.15 | 1.3878 ± 0.00031 | 2.514 ± 0.013
293.15 K | 803.963 ± 0.15 | 1.38576 ± 0.00031 | 2.208 ± 0.012
298.15 K | 799.953 ± 0.15 | 1.38369 ± 0.00031 | 1.95 ± 0.011
303.15 K | 795.915 ± 0.15 | 1.38162 ± 0.00031 | 1.727 ± 0.011
308.15 K | 791.84 ± 0.15 | 1.37918 ± 0.00031 | 1.542 ± 0.01
313.15 K | 787.721 ± 0.15 | 1.37695 ± 0.00031 | 1.378 ± 0.0097
318.15 K | 783.553 ± 0.15 | 1.37469 ± 0.00031 | 1.236 ± 0.0094
323.15 K | 779.334 ± 0.15 | 1.37231 ± 0.00031 | 1.124 ± 0.0091

c1ccncc1 [pyridine] + CC(O)CO
x1 = 1
Conditions | mass density, [2] [kg/m3] | refractive index, [1] | viscosity, [2] [mPa·s]
288.15 K | 988.061 ± 0.12 | 1.51184 ± 0.00031 | 1.03 ± 0.0089
293.15 K | 983.038 ± 0.12 | 1.509 ± 0.00031 | 0.9588 ± 0.0087
298.15 K | 978.006 ± 0.12 | 1.50616 ± 0.00031 | 0.8943 ± 0.0086
303.15 K | 972.967 ± 0.12 | 1.50331 ± 0.00031 | 0.8355 ± 0.0085
308.15 K | 967.913 ± 0.12 | 1.50048 ± 0.00031 | 0.7837 ± 0.0084
313.15 K | 962.849 ± 0.12 | 1.49769 ± 0.00031 | 0.7354 ± 0.0083
318.15 K | 957.769 ± 0.12 | 1.49493 ± 0.00031 | 0.6912 ± 0.0082
323.15 K | 952.673 ± 0.12 | 1.49219 ± 0.00031 | 0.6507 ± 0.0081

c1ccncc1 [pyridine]
Conditions | mass density, [4] [kg/m3] | refractive index, [3] | viscosity, [4] [mPa·s]
288.15 K | 988.061 ± 0.12 | 1.51184 ± 0.00031 | 1.03 ± 0.0089
293.15 K | 983.038 ± 0.12 | 1.509 ± 0.00031 | 0.9588 ± 0.0087
298.15 K | 978.006 ± 0.12 | 1.50616 ± 0.00031 | 0.8943 ± 0.0086
303.15 K | 972.967 ± 0.12 | 1.50331 ± 0.00031 | 0.8355 ± 0.0085
308.15 K | 967.913 ± 0.12 | 1.50048 ± 0.00031 | 0.7837 ± 0.0084
313.15 K | 962.849 ± 0.12 | 1.49769 ± 0.00031 | 0.7354 ± 0.0083
318.15 K | 957.769 ± 0.12 | 1.49493 ± 0.00031 | 0.6912 ± 0.0082
323.15 K | 952.673 ± 0.12 | 1.49219 ± 0.00031 | 0.6507 ± 0.0081

OCCCO [propan-1,3-diol]
Conditions | mass density, [4] [kg/m3] | refractive index, [3] | viscosity, [4] [mPa·s]
288.15 K | 1056.12 ± 0.95 | 1.44089 ± 0.00051 | 66.53 ± 0.72
293.15 K | 1053.02 ± 0.95 | 1.43947 ± 0.00051 | 51.91 ± 0.53
298.15 K | 1049.91 ± 0.94 | 1.43805 ± 0.00051 | 41.04 ± 0.44
303.15 K | 1046.79 ± 0.93 | 1.43665 ± 0.00051 | 32.84 ± 0.35
308.15 K | 1043.64 ± 0.93 | 1.43526 ± 0.00051 | 26.58 ± 0.28
313.15 K | 1040.49 ± 0.92 | 1.43387 ± 0.00051 | 21.74 ± 0.23
318.15 K | 1037.31 ± 0.91 | 1.43244 ± 0.00051 | 17.95 ± 0.19
323.15 K | 1034.12 ± 0.91 | 1.43099 ± 0.00051 | 14.96 ± 0.16

OCC(O)CO [glycerol]
Conditions | mass density, [4] [kg/m3] | refractive index, [3] | viscosity, [4] [mPa·s]
288.15 K | 1264.08 ± 0.22 | 1.47552 ± 0.00033 | 2298.3 ± 120
293.15 K | 1261.03 ± 0.22 | 1.47427 ± 0.00033 | 1425.1 ± 65
298.15 K | 1257.94 ± 0.22 | 1.47301 ± 0.00033 | 911.98 ± 36
303.15 K | 1254.83 ± 0.22 | 1.47175 ± 0.00033 | 600.83 ± 20
308.15 K | 1251.68 ± 0.21 | 1.47048 ± 0.00033 | 406.93 ± 12
313.15 K | 1248.48 ± 0.21 | 1.4692 ± 0.00033 | 282.61 ± 6.7
318.15 K | 1245.24 ± 0.21 | 1.46791 ± 0.00033 | 201.03 ± 3.9
323.15 K | 1242.08 ± 0.21 | 1.46674 ± 0.00033 | 147.15 ± 2.2
